Source: patent publication US10588317B2, “Isoxazoline-substituted benzamides and analogues as insecticides” (priority 2015, dated 2020)

Assays:
Assay type in all cases: in vivo
Plutella xylostella = Plutella xylostella (diamond back moth), artificial diet; conditions: 120 h, application rate 200 ppm, L2 larvae, 5 days after infestation, read-out: effect in at least one of the two categories (mortality or growth inhibition)
Summary of the method: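 L2 larvae (10-15 per well) fed on compound-treated, dried artificial diet; test solutions diluted in water from 10'000 ppm DMSO stocks. Readout 5 days post-infestation as mortality or growth inhibition versus untreated diet, with at least 80% effect at 200 ppm as threshold.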

Thrips tabaci = Thrips tabaci (onion thrips): feeding/contact activity; conditions: 144 h, application rate 200 ppm, Thrips population of mixed ages, 6 days after infestation, read-out: mortality
Experimental: (§1) Sunflower leaf discs were placed on agar in 24-well microtiter plates and sprayed with aqueous test solutions prepared from 10'000 ppm DMSO stock solutions. After drying the leaf discs were infested with a Thrips population of mixed ages. The samples were assessed for mortality 6 days after infestation.

Euschistus heros = Euschistus heros (neotropical brown stink bug), sprayed soybean leaves; conditions: 120 h, application rate 200 ppm, N2 nymphs, 5 days after infestation, read-out: effect in at least one of the two categories (mortality or growth inhibition)
Summary of the method: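 Scored 5 days post-infestation versus untreated controls, for both mortality and growth inhibition: N2 nymphs placed on agar-mounted soybean leaves previously sprayed at 200 ppm with aqueous test solutions from DMSO stocks and left to dry.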

Tetranychus urticae = Tetranychus urticae (two-spotted spider mite): feeding/contact activity; conditions: 192 h, application rate 200 ppm, mixed population (mobile stages), 8 days after infestation, read-out: mortality
Experimental: as §1, with “Bean” for “Sunflower”, “discs” for “discs were placed”, “were” for “and”, “mite” for “Thrips”, “on mixed population (mobile stages) 8” for “6”

Diabrotica balteata = Diabrotica balteata (corn root worm), sprayed maize sprouts; conditions: 96 h, application rate 200 ppm, L2 larvae, 4 days after infestation, read-out: effect in at least one of the two categories (mortality or growth inhibition)
Summary of the method: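 Read-out at 4 days post-infestation: mortality and growth inhibition relative to untreated samples. Test solutions (200 ppm, from DMSO stocks) were sprayed onto agar-held maize sprouts, which after drying received 6–10 L2 larvae per well.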

Spodoptera littoralis = Spodoptera littoralis (Egyptian cotton leaf worm), sprayed cotton leaf discs; conditions: foliar, 72 h, application rate 200 ppm, L1 larvae, 3 days after infestation, read-out: control (mortality, anti-feeding effect, growth inhibition)
Summary of the method: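 Five first-instar larvae placed on dried cotton leaf discs (on agar) previously sprayed with aqueous dilutions of 10'000 ppm DMSO stocks. Scored at 3 days against untreated discs for mortality, feeding inhibition and growth inhibition; any category above untreated counts as control.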

Myzus persicae = Myzus persicae (green peach aphid): feeding/contact activity; conditions: 144 h, application rate 200 ppm, aphid population of mixed ages, 6 days after infestation, read-out: mortality
Experimental: Sunflower leaf discs were placed onto agar in a 24-well microtiter plate and sprayed with aqueous test solutions prepared from 10'000 ppm DMSO stock solutions. After drying, the leaf discs were infested with an aphid population of mixed ages. The samples were assessed for mortality 6 days after infestation.

CCS(=O)(=O)N1CC(NC(=O)c2ccc(C3=NO[C@@](c4cc(Cl)c(F)c(Cl)c4)(C(F)(F)F)C3)cc2C)CO1 (some centres unmarked) [Compound A4]
≥ 80%: percent effect (mortality or growth inhibition) at 200 ppm (Plutella xylostella) | mortality at 200 ppm (Thrips tabaci) | percent effect (mortality or growth inhibition) at 200 ppm (Euschistus heros) | mortality at 200 ppm (Tetranychus urticae) | percent effect (mortality or growth inhibition) at 200 ppm (Diabrotica balteata) | mortality at 200 ppm (Spodoptera littoralis) | mortality at 200 ppm (Myzus persicae)

Cc1cc(C2=NO[C@@](c3cc(Cl)c(F)c(Cl)c3)(C(F)(F)F)C2)ccc1C(=O)N[C@H]1CON(S(=O)(=O)C(F)F)C1 [Compound A226, 4-[(5S)-5-(3,5-dichloro-4-fluorophenyl)-5-(trifluoromethyl)-4H-1,2-oxazol-3-yl]-N-[(4R)-2-(difluoromethylsulfonyl)-1,2-oxazolidin-4-yl]-2-methylbenzamide]
≥ 80%: percent effect (mortality or growth inhibition) at 200 ppm (Plutella xylostella) | mortality at 200 ppm (Thrips tabaci) | percent effect (mortality or growth inhibition) at 200 ppm (Euschistus heros) | mortality at 200 ppm (Tetranychus urticae) | percent effect (mortality or growth inhibition) at 200 ppm (Diabrotica balteata) | mortality at 200 ppm (Spodoptera littoralis) | mortality at 200 ppm (Myzus persicae)

CCCS(=O)(=O)N1CC(NC(=O)c2ccc(C3=NO[C@@](c4cc(Cl)c(F)c(Cl)c4)(C(F)(F)F)C3)cc2C)CO1 (some centres unmarked) [Compound A3]
≥ 80%: percent effect (mortality or growth inhibition) at 200 ppm (Plutella xylostella) | mortality at 200 ppm (Thrips tabaci) | percent effect (mortality or growth inhibition) at 200 ppm (Euschistus heros) | mortality at 200 ppm (Tetranychus urticae) | percent effect (mortality or growth inhibition) at 200 ppm (Diabrotica balteata) | mortality at 200 ppm (Spodoptera littoralis) | mortality at 200 ppm (Myzus persicae)

Cc1cc(C2=NO[C@@](c3cc(Cl)c(F)c(Cl)c3)(C(F)(F)F)C2)ccc1C(=O)N[C@H]1CON(S(=O)(=O)CBr)C1 [Compound A189, N-[(4R)-2-(bromomethylsulfonyl)-1,2-oxazolidin-4-yl]-4-[(5S)-5-(3,5-dichloro-4-fluorophenyl)-5-(trifluoromethyl)-4H-1,2-oxazol-3-yl]-2-methylbenzamide]
≥ 80%: percent effect (mortality or growth inhibition) at 200 ppm (Plutella xylostella) | mortality at 200 ppm (Thrips tabaci) | percent effect (mortality or growth inhibition) at 200 ppm (Euschistus heros) | mortality at 200 ppm (Tetranychus urticae) | percent effect (mortality or growth inhibition) at 200 ppm (Diabrotica balteata) | mortality at 200 ppm (Spodoptera littoralis) | mortality at 200 ppm (Myzus persicae)

CCN(C(C)C)S(=O)(=O)N1CC(NC(=O)c2ccc(C3=NO[C@@](c4cc(Cl)c(Cl)c(Cl)c4)(C(F)(F)F)C3)cc2C)CO1 (some centres unmarked) [Compound A104]
≥ 80%: percent effect (mortality or growth inhibition) at 200 ppm (Plutella xylostella) | mortality at 200 ppm (Thrips tabaci) | percent effect (mortality or growth inhibition) at 200 ppm (Euschistus heros) | mortality at 200 ppm (Tetranychus urticae) | percent effect (mortality or growth inhibition) at 200 ppm (Diabrotica balteata) | mortality at 200 ppm (Spodoptera littoralis) | mortality at 200 ppm (Myzus persicae)

COCN(C)S(=O)(=O)N1CC(NC(=O)c2ccc(C3=NO[C@@](c4cc(Cl)c(Cl)c(Cl)c4)(C(F)(F)F)C3)cc2C)CO1 (some centres unmarked) [Compound A96]
≥ 80%: percent effect (mortality or growth inhibition) at 200 ppm (Plutella xylostella) | mortality at 200 ppm (Thrips tabaci) | percent effect (mortality or growth inhibition) at 200 ppm (Euschistus heros) | mortality at 200 ppm (Tetranychus urticae) | percent effect (mortality or growth inhibition) at 200 ppm (Diabrotica balteata) | mortality at 200 ppm (Spodoptera littoralis) | mortality at 200 ppm (Myzus persicae)

CNS(=O)(=O)N1C[C@@H](NC(=O)c2ccc(C3=NO[C@](c4cc(Cl)c(OC(F)F)c(Cl)c4)(C(F)(F)F)C3)cc2C)CO1 [Compound A207, 4-[(5R)-5-[3,5-dichloro-4-(difluoromethoxy)phenyl]-5-(trifluoromethyl)-4H-1,2-oxazol-3-yl]-2-methyl-N-[(4R)-2-(methylsulfamoyl)-1,2-oxazolidin-4-yl]benzamide]
≥ 80%: percent effect (mortality or growth inhibition) at 200 ppm (Plutella xylostella) | mortality at 200 ppm (Thrips tabaci) | percent effect (mortality or growth inhibition) at 200 ppm (Euschistus heros) | mortality at 200 ppm (Tetranychus urticae) | percent effect (mortality or growth inhibition) at 200 ppm (Diabrotica balteata) | mortality at 200 ppm (Spodoptera littoralis) | mortality at 200 ppm (Myzus persicae)

Cc1cc(C2=NO[C@@](c3cc(Cl)c(F)c(Cl)c3)(C(F)(F)F)C2)ccc1C(=O)N[C@@H]1CON(S(=O)(=O)N2CCOCC2)C1 [Compound A188, 4-[(5S)-5-(3,5-dichloro-4-fluorophenyl)-5-(trifluoromethyl)-4H-1,2-oxazol-3-yl]-2-methyl-N-[(4S)-2-morpholin-4-ylsulfonyl-1,2-oxazolidin-4-yl]benzamide]
≥ 80%: percent effect (mortality or growth inhibition) at 200 ppm (Plutella xylostella) | mortality at 200 ppm (Thrips tabaci) | percent effect (mortality or growth inhibition) at 200 ppm (Euschistus heros) | mortality at 200 ppm (Tetranychus urticae) | percent effect (mortality or growth inhibition) at 200 ppm (Diabrotica balteata) | mortality at 200 ppm (Spodoptera littoralis) | mortality at 200 ppm (Myzus persicae)

C#CCN(C(=O)OC(C)(C)C)S(=O)(=O)N1C[C@@H](NC(=O)c2ccc(C3=NO[C@@](c4cc(Cl)cc(Cl)c4)(C(F)(F)F)C3)cc2Cl)CO1 [Compound A152]
≥ 80%: percent effect (mortality or growth inhibition) at 200 ppm (Plutella xylostella) | mortality at 200 ppm (Thrips tabaci) | percent effect (mortality or growth inhibition) at 200 ppm (Euschistus heros) | mortality at 200 ppm (Tetranychus urticae) | percent effect (mortality or growth inhibition) at 200 ppm (Diabrotica balteata) | mortality at 200 ppm (Spodoptera littoralis) | mortality at 200 ppm (Myzus persicae)

Cc1cc(C2=NO[C@@](c3cc(Cl)c(F)c(Cl)c3)(C(F)(F)F)C2)ccc1C(=O)N[C@H]1CON(S(=O)(=O)NCC(F)(F)F)C1 [Compound A149, 4-[(5S)-5-(3,5-dichloro-4-fluoro-phenyl)-5-(trifluoromethyl)-4H-isoxazol-3-yl]-2-methyl-N-[(4R)-2-(2,2,2-trifluoroethylsulfamoyl)isoxazolidin-4-yl]benzamide]
≥ 80%: percent effect (mortality or growth inhibition) at 200 ppm (Plutella xylostella) | mortality at 200 ppm (Thrips tabaci) | percent effect (mortality or growth inhibition) at 200 ppm (Euschistus heros) | mortality at 200 ppm (Tetranychus urticae) | percent effect (mortality or growth inhibition) at 200 ppm (Diabrotica balteata) | mortality at 200 ppm (Spodoptera littoralis) | mortality at 200 ppm (Myzus persicae)

Cc1cc(C2=NO[C@](c3ccc(F)c(C(F)(F)F)c3)(C(F)(F)F)C2)ccc1C(=O)N[C@@H]1CON(S(=O)(=O)N(C)C)C1 [Compound A184]
≥ 80%: percent effect (mortality or growth inhibition) at 200 ppm (Plutella xylostella) | mortality at 200 ppm (Thrips tabaci) | percent effect (mortality or growth inhibition) at 200 ppm (Euschistus heros) | mortality at 200 ppm (Tetranychus urticae) | percent effect (mortality or growth inhibition) at 200 ppm (Diabrotica balteata) | mortality at 200 ppm (Spodoptera littoralis) | mortality at 200 ppm (Myzus persicae)

Cc1cc(C2=NO[C@@](c3cc(Cl)c(F)c(Cl)c3)(C(F)(F)F)C2)ccc1C(=O)NC1CON(S(=O)(=O)N(C)S(=O)(=O)N(C)C)C1 (stereo partly drawn) [Compound A79, 4-[(5S)-5-(3,5-dichloro-4-fluoro-phenyl)-5-(trifluoromethyl)-4H-isoxazol-3-yl]-N-[2-[dimethylsulfamoyl(methyl)sulfamoyl]isoxazolidin-4-yl]-2-methyl-benzamide]
≥ 80%: percent effect (mortality or growth inhibition) at 200 ppm (Plutella xylostella) | mortality at 200 ppm (Thrips tabaci) | percent effect (mortality or growth inhibition) at 200 ppm (Euschistus heros) | mortality at 200 ppm (Tetranychus urticae) | percent effect (mortality or growth inhibition) at 200 ppm (Diabrotica balteata) | mortality at 200 ppm (Spodoptera littoralis) | mortality at 200 ppm (Myzus persicae)

COC(=O)N(C)S(=O)(=O)N1CC(NC(=O)c2ccc(C3=NO[C@@](c4cc(Cl)c(F)c(Cl)c4)(C(F)(F)F)C3)cc2C)CO1 (stereo partly drawn) [Compound A77, methyl N-[4-[[4-[(5S)-5-(3,5-dichloro-4-fluoro-phenyl)-5-(trifluoromethyl)-4H-isoxazol-3-yl]-2-methyl-benzoyl]amino]isoxazolidin-2-yl]sulfonyl-N-methyl-carbamate]
≥ 80%: percent effect (mortality or growth inhibition) at 200 ppm (Plutella xylostella) | mortality at 200 ppm (Thrips tabaci) | percent effect (mortality or growth inhibition) at 200 ppm (Euschistus heros) | mortality at 200 ppm (Tetranychus urticae) | percent effect (mortality or growth inhibition) at 200 ppm (Diabrotica balteata) | mortality at 200 ppm (Spodoptera littoralis) | mortality at 200 ppm (Myzus persicae)

Cc1cc(C2=NO[C@@](c3cc(Cl)c(F)c(Cl)c3)(C(F)(F)F)C2)ccc1C(=O)NC1CON(S(=O)(=O)N(C)C(=O)c2ccccc2)C1 (stereo partly drawn) [Compound A80, N-[2-[benzoyl(methyl)sulfamoyl]isoxazolidin-4-yl]-4-[(5S)-5-(3,5-dichloro-4-fluoro-phenyl)-5-(trifluoromethyl)-4H-isoxazol-3-yl]-2-methyl-benzamide]
≥ 80%: percent effect (mortality or growth inhibition) at 200 ppm (Plutella xylostella) | mortality at 200 ppm (Thrips tabaci) | percent effect (mortality or growth inhibition) at 200 ppm (Euschistus heros) | mortality at 200 ppm (Tetranychus urticae) | percent effect (mortality or growth inhibition) at 200 ppm (Diabrotica balteata) | mortality at 200 ppm (Spodoptera littoralis) | mortality at 200 ppm (Myzus persicae)
